Measured values reported in US7517654B2, “Peptide and a derivative thereof promoting cell adhesion and spreading” (Seoul National University Industry Foundation, priority 2004, dated 2009).

How the values were obtained:
HOK-16B cells [1] = assay: Cell adhesion assay on coated plates (crystal violet absorbance at 570 nm / cell counting); type: cell-based, human; details: 1 h; for cell adhesion activity of synthetic peptides / cell adhesion activity compared to the peptide P4 control: HOK-16B cells; for cell adhesion activity of synthetic peptides: plates coated with 10-50 μg/well peptide, serum-free medium; for cell adhesion activity compared to the peptide P4 control: 10 μg/well truncated or Ala-substituted peptide coating; for cell adhesion activity of rLG proteins: HOK-16B cells on rLG protein-coated plates, compared to BSA control
Method: The cell adhesion assay was performed according to a method reported by Okazaki et al. (J. Biol. Chem., 277:37070, 2002). In detail, 24-well culture plates (Nunc, Roskilde, Denmark) were coated with various amounts of rLG proteins at 4° C. overnight. The peptides were also coated on plates by drying overnight. The substrate-coated on the plates were blocked by adding 1% heat-inactivated bovine serum albumin (BSA) in PBS for 1 h at 37° C. and washed twice with PBS. The cells in the Experimental Example 1, detached by 0.05% tyrpsin and 0.53 mM EDTA in PBS and resuspended in culture media, were added (1×10^5 cells/500 μl) to each plate and incubated for 1 h at 37° C. After incubation, unattached cells were removed by rinsing twice with PBS. The attached cells were fixed with 10% formalin in PBS for 15 min, rinsed twice with PBS, and stained with 0.5% crystal violet for 1 h. The plates were gently rinsed with DDW three times and lysed with 2% SDS for 5 min. Absorbance was measured at 570 nm in a Bio-Rad Model 550 microplate reader (BioRad).
The cell adhesion and spreading activities on peptide-coated plates were examined using HOK-16B cells by the same method as Experimental Example 2. 24-well plates were coated with 10, 20, 30, 40 and 50 μg/well peptides P1 to P5, respectively. HOK-16B cells were added to peptide-coated plates and cultured for 1 h in serum-free medium for 1 hr. After the unbound cells were washed off, adherent cells were fixed and stained with crystal violet, and then the stained cells were analyzed. Absorbance was measured at 570 nm in a microplate reader. BSA and the rLG3 were used as negative control and positive control, respectively.
It was observed that peptide P4 promotes strong cell adhesion and spreading activities and binds to integrin α3β1 in the Example 4. Therefore, to determine the biologically active core sequences in peptide P4, five synthetic peptides (P4 D-I to P4 D-V), which are C-terminal truncated peptides from the peptide P4, and six synthetic peptides (P4 D-N1 to P4 D-N6), which are N-terminal truncated peptides from the peptide P4 were prepared (FIG. 6A) and examined for HOK-16B cell adhesion and spreading activities on peptide-coated plates by the present inventors. 24-well plates were coated with 10 μg/well C-terminal truncated peptides or N-terminal truncated peptides, and HOK-16B cells were added to the plates, and then cultured in serum-free medium for 1 hr. After the unbound cells were washed off, the adherent cells were fixed to stain with crystal violet, and the stained cells were analyzed. Absorbance was measured at 570 nm in a microplate reader. Peptide P4 and BSA were used as the positive and negative controls, respectively.
24-well plates were coated with 10 μg/well peptides, and HOK-16B cells were added to the plates, and then cultured in serum-free medium for 1 hr. After the unbound cells were washed off, the adherent cells were fixed to stain with crystal violet, and the stained cells were analyzed. Peptide P4 and BSA were used as the positive and negative controls, respectively. The results were expressed as mean ±SD of the four independent experiments.

HOK-16B cells [2] = assay: Cell spreading activity assay on coated plates; type: cell-based, human; details: for cell spreading activity compared to the peptide P4 control: HOK-16B cells, 10 μg/well truncated or Ala-substituted peptide coating, 1 h; for cell spreading activity: HOK-16B cells on rLG protein- or peptide P1-P5-coated plates
Method: To identify spreading cells, attached cells were fixed with 10% formalin in PBS for 15 min, rinsed twice with PBS, and stained with 0.005% crystal violet for 1 h. The plates were then gently rinsed with DDW. To ensure a representative count, each plate was divided into quarters, two fields per quarter were photographed using an Olympus BX51 microscope at 100× magnification. Cells that had adopted a flattened, polygonal shape, with filopodia-and lamellipodia-like extensions were considered to be spreading cells. In contrast, cells that resisted being washed and remained tethered to the plate surface were considered to be non-spreading cells.
To examine the adhesion activity of peptide P4 in detail, the inventors examined whether the adherent cells were tethered to the substratum or spread over the substratum. The BSA and rLG3 were used as the negative control and positive control, respectively, the percentage of cells displaying a spreading morphology was quantified by dividing the number of spreading cells by the total number of bound cells.

Molecule: peptide P1: 12-mer peptide, residues 1293-1304 of human laminin α3 chain SEQ ID NO: 2; control peptide (LTSNSLKRDVSL; listed as Homo sapiens)
- cell adhesion activity of synthetic peptides (HOK-16B cells [1]): no adhesion activity

Molecule: peptide P4 D-I: peptide P4 with a deletion of the C-terminal Arg residue (PPFLMLLKGST)
- cell adhesion activity compared to the peptide P4 control (HOK-16B cells [1]): significantly lower cell adhesion activity than the peptide P4 control

Molecule: peptide P4 D-N2: peptide P4 with deletions of the N-terminal two Pro residues (FLMLLKGSTR)
- cell adhesion activity compared to the peptide P4 control (HOK-16B cells [1]): showed a significantly lower cell adhesion and spreading activities
- cell spreading activity compared to the peptide P4 control (HOK-16B cells [2]): showed a significantly lower cell adhesion and spreading activities

Molecule: peptide P4 D-N1: peptide P4 with a deletion of one of the N-terminal two Pro residues (PFLMLLKGSTR)
- cell adhesion activity compared to the peptide P4 control (HOK-16B cells [1]): did not show a significantly lower cell adhesion and spreading activities
- cell spreading activity compared to the peptide P4 control (HOK-16B cells [2]): did not show a significantly lower cell adhesion and spreading activities

Molecule: peptide P4-S1: peptide P4 in which the 8th Lys of SEQ ID NO: 1 is replaced by Ala (PPFLMLLAGSTR)
- cell adhesion activity compared to the peptide P4 control (HOK-16B cells [1]): unaffected
- cell spreading activity compared to the peptide P4 control (HOK-16B cells [2]): unaffected

Molecule: P3: 12-mer peptide, residues 1305-1316 of SEQ ID NO: 2 (GGCSLNKPPFLM; listed as Homo sapiens)
- cell adhesion activity of synthetic peptides (HOK-16B cells [1]): no adhesion activity

Molecule: peptide P5: 12-mer peptide, residues 1321-1332 of SEQ ID NO: 2 (STRFNKTKTFRI; listed as Homo sapiens)
- cell adhesion activity of synthetic peptides (HOK-16B cells [1]): very weak dose-dependent adhesion activity at concentrations ≧25 μg/well

Molecule: P2: 12-mer peptide, residues 1297-1308 of SEQ ID NO: 2 (SLKRDVSLGGCS; listed as Homo sapiens)
- cell adhesion activity of synthetic peptides (HOK-16B cells [1]): no adhesion activity

B1: rLG1: recombinant His6-tagged LG1 domain, residues 782-978 of human laminin α3 chain, expressed in E. coli (protein, listed as Homo sapiens)
chain: RLPNDLEDLKGYTSLSLFLQRPNSRENGGTENMFVMYLGNKDASRDYIGMAVVDGQLTCVYNLGDREAELQVDQILTKSETKEAVMDRVKFQRIYQFARLNYTKGATSSKPETPGVYDMDGRNSNTLLNLDPENVVFYVGGYPPDFKLPSRLSFPPYKGCIELDDLNENVLSLYNFKKTFNLNTTEVEPCRRRKEES
modifications: His6 tag
notes: recombinant His6-tagged LG1 domain, residues 782-978 of human laminin α3 chain, expressed in E. coli
- cell adhesion activity of rLG proteins (HOK-16B cells [1]): marginal adhesion activity
- cell spreading activity (HOK-16B cells [2]): minimal cell spreading

B2: rLG4: recombinant His6-tagged LG4 domain, residues 1352-1555 of human laminin α3 chain (protein, listed as Homo sapiens)
chain: DACSPLPKTQANHGALQFGDIPTSHLLFKLPQELLKPRSQFAVDMQTTSSRGLVFHTGTKNSFMALYLSKGRLVFALGTDGKKLRIKSKEKCNDGKWHTVVFGHDGEKGRLVVDGLRAREGSLPGNSTISIRAPVYLGSPPSGKPKSLPTNSFVGCLKNFQLDSKPLYTPSSSFGVSSCLGGPLEKGIYFSEEGGHVVLAHSVL
modifications: His6 tag
notes: recombinant His6-tagged LG4 domain, residues 1352-1555 of human laminin α3 chain
- cell adhesion activity of rLG proteins (HOK-16B cells [1]): marginal adhesion activity
- cell spreading activity (HOK-16B cells [2]): minimal cell spreading

B3: rLG5: recombinant His6-tagged LG5 domain, residues 1522-1713 of human laminin α3 chain (protein, listed as Homo sapiens)
chain: SSSFGVSSCLGGPLEKGIYFSEEGGHVVLAHSVLLGPEFKLVFSIRPRSLTGILIHIGSQPGKHLCVYLEAGKVTASMDSGAGGTSTSVTPKQSLCDGQWHSVAVTIKQHILHLELDTDSSYTAGQIPFPPASTQEPLHLGGAPANLTTLRIPVWKSFFGCLRNIHVNHIPVPVTEALEVQGPVSLNGCPDQ
modifications: His6 tag
notes: recombinant His6-tagged LG5 domain, residues 1522-1713 of human laminin α3 chain
- cell adhesion activity of rLG proteins (HOK-16B cells [1]): marginal adhesion activity
- cell spreading activity (HOK-16B cells [2]): minimal cell spreading

B4: rLG2: recombinant His6-tagged LG2 domain, residues 959-1148 of human laminin α3 chain (protein, listed as Homo sapiens)
chain: KTFNLNTTEVEPCRRRKEESDKNYFEGTGYARVPTQPHAPIPTFGQTIQTTVDRGLLFFAENGDRFISLNIEDGKLMVRYKLNSELPKERGVGDAINNGRDHSIQIKIGKLQKRMWINVDVQNTIIDGEVFDFSTYYLGGIPIAIRERFNISTPAFRGCMKNLKKTSGVVRLNDTVGVTKKCSEDWKLVR
modifications: His6 tag
notes: recombinant His6-tagged LG2 domain, residues 959-1148 of human laminin α3 chain
- cell adhesion activity of rLG proteins (HOK-16B cells [1]): marginal adhesion activity
- cell spreading activity (HOK-16B cells [2]): minimal cell spreading
